# What was measured:
# [1] = after ingestion; cited from earlier work
# 5-HT2-receptor = conditions: cited from earlier work
# [2] = tested on: Sexual Disorders and/or Dysfunctions; assay: Studies of female patients suffering from Sexual Disorders; assay type: in vivo, human
# 5-HT1A receptor = molecular target: T1, 5-HT1A receptor (Homo sapiens, UniProt P08908); conditions: cited from earlier work
# T1 sequence (P08908 1-422): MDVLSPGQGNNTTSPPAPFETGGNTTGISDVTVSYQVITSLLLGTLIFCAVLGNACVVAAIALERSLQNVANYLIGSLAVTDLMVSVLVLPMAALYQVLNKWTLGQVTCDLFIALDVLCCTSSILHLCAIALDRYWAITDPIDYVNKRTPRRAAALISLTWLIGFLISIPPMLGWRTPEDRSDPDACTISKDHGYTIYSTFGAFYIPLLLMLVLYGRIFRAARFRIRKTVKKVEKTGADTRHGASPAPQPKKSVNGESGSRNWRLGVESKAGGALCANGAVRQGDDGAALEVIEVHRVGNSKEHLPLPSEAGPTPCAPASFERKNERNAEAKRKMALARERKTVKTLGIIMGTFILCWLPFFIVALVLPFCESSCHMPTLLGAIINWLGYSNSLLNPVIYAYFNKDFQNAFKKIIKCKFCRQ
# [3] = known use of flibanserin; cited from earlier work
Compound,physiological half-life [1],affinity for the 5-HT2-receptor (5-HT2-receptor),effect on Sexual Disorders and/or Dysfunctions [2],affinity for the 5-HT1A receptor (5-HT1A receptor),side effects (sedation) [3]
Cn1c(=O)c2c(ncn2C)n(C)c1=O [caffeine],three and a half to six,–,–,–,–
"O=c1[nH]c2ccccc2n1CCN1CCN(c2cccc(C(F)(F)F)c2)CC1 [flibanserin, 1-[2-(4-(3-trifluoromethyl-phenyl)piperazin-1-yl)ethyl]-2,3-dihydro-1H-benzimidazol-2-one]",–,shows affinity,positive effect,shows affinity,sometimes mild or moderate symptoms such as sedation may occur
